Common to all, as to format: biochemical
In one test the target is T1, cathepsin K (Homo sapiens, UniProt P43235).
T1 sequence (P43235 115-329): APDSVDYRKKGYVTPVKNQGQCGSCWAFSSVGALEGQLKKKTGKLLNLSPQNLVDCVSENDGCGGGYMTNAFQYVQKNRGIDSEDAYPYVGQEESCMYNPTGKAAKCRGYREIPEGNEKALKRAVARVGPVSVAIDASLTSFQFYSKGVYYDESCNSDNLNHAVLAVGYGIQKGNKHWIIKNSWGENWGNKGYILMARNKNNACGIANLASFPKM
The experiment in a line: Inhibitory activity assay against cathepsin K (enzyme assay). Particulars: Z-Phe-Arg-AMC 10 μM, enzyme 1 nM, pH 5.5, 30 minutes. An outline of the steps: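 Fluorogenic assay with 1 nM cathepsin K and 10 μM Z-Phe-Arg-AMC in pH 5.5 buffer (50 mM MES, 2 mM DTT, 2.5 mM EDTA, 0.01% Triton X-100, 10% DMSO). Ten compound concentrations, 10.0 to 0.000508 μM; 30 min reaction, ex 355/em 460 nm; IC50 by 4-parameter logistic fit.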

A further test concerns the target cathepsin B (Homo sapiens, UniProt P07858). In words: Inhibitory activity assay against cathepsin B (enzyme assay). Particulars: Z-Arg-Arg-AMC 40 μM, enzyme 1 nM, pH 6.0, 90 minutes. In outline:
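1 nM enzyme with 40 μM Z-Arg-Arg-AMC and compound (10.0 μM down to 0.000508 μM, 10 points) in pH 6.0 buffer of 50 mM MES, 5 mM DTT, 2.5 mM EDTA, 0.005% Polysorbate 20, 10% DMSO. Fluorescence (340/460 nm) read after 90 min; IC50 by 4-parameter logistic fit.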

Another test concerns the target cathepsin L (Homo sapiens, UniProt P07711). In words: Inhibitory activity assay against cathepsin L (enzyme assay). The note with it: Z-Phe-Arg-AMC 2 μM, enzyme 3 nM, pH 5.5, 30 minutes. An outline of the steps:
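Enzyme at 3 nM with 2 μM Z-Phe-Arg-AMC in 50 mM MES pH 5.5, 2.5 mM DTT, 2.5 mM EDTA, 0.005% Polysorbate 20, 10% DMSO; 30 min reaction, AMC fluorescence 340/460 nm. Ten-point series 10.0 μM to 0.000508 μM; IC50 by 4-parameter logistic fit.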

Another test deals with cathepsin S (Homo sapiens, UniProt P25774). In words: Inhibitory activity assay against cathepsin S (enzyme assay). The note with it: Z-Phe-Arg-AMC 70 μM, enzyme 3 nM, pH 6.5, 45 minutes. In outline:
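Cathepsin S (3 nM final) with Z-Phe-Arg-AMC substrate (70 μM final) in pH 6.5 buffer of 50 mM MES, 2.5 mM DTT, 1.0 mM EDTA, 0.001% BSA, 10% DMSO; compound 10.0 μM down to 0.000508 μM, 10 points. Fluorescence (ex 340/em 460 nm) after 45 min; IC50 by 4-parameter logistic fit.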

Where only a bound is given, the exact number is not on record here.

Chain of cathepsin L (P07711 114-333, species assumed): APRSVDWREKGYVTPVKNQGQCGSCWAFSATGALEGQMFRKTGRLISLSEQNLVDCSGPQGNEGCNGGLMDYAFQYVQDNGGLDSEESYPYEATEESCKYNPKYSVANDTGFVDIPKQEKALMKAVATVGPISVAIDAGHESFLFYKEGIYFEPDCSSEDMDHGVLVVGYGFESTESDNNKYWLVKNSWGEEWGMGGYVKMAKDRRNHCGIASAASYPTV
Chain of cathepsin S (P25774 115-331, species assumed): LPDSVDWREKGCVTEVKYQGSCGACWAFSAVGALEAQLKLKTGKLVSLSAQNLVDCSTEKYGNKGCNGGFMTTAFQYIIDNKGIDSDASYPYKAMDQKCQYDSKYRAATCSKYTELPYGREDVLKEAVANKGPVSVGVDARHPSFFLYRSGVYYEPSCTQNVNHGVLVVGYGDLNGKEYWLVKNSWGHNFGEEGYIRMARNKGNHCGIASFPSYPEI

One may read the IC50 as the concentration that gives 50% inhibition. As for `N#Cc1nccc(C2(NC(=O)Nc3ccc(-c4ccc(CCC(=O)O)cc4)cc3)CCCCC2)n1` [Example 131, 3-(4′-(3-(1-(2-cyanopyrimidin-4-yl)cyclohexyl)ureido)-[1,1′-biphenyl]-4-yl)propanoic acid], the half-maximal inhibitory concentration (IC50) on cathepsin K is 15.9 nM; at cathepsin B, over 10000 nM; against cathepsin L, over 10000 nM; against cathepsin S, 3930 nM.
With `N#Cc1nccc(C2(NC(=O)Nc3ccc(I)cc3)CCCCC2)n1` [Example 132, 1-(1-(2-cyanopyrimidin-4-yl)cyclohexyl)-3-(4-iodophenyl)urea], the IC50 at cathepsin K was 15.9 nM; at cathepsin B it was over 10000 nM; against cathepsin L it was over 10000 nM; at cathepsin S it was over 10000 nM.
For `N#Cc1nccc(C2(NC(=O)Nc3ccc(Br)c(C(F)(F)F)c3)CCCCC2)n1` [Example 133, 1-(4-bromo-3-(trifluoromethyl)phenyl)-3-(1-(2-cyanopyrimidin-4-yl)cyclohexyl)urea], the IC50 at cathepsin K was 63.7 nM; against cathepsin B, over 10000 nM; at cathepsin L, over 10000 nM; on cathepsin S, over 10000 nM.
On to `N#Cc1nccc(C2(NC(=O)Nc3ccc(Br)cc3F)CCCCC2)n1` [Example 134, 1-(4-bromo-2-fluorophenyl)-3-(1-(2-cyanopyrimidin-4-yl)cyclohexyl)urea], for which the IC50 was 5.3 nM at cathepsin K, over 10000 nM at cathepsin B, over 10000 nM on cathepsin L and over 10000 nM on cathepsin S.
As to `N#Cc1nccc(C2(NC(=O)Nc3ccc(I)c(C(F)(F)F)c3)CCCCC2)n1` [Example 136, 1-(1-(2-cyanopyrimidin-4-yl)cyclohexyl)-3-(4-iodo-3-(trifluoromethyl)phenyl)urea], the IC50 on cathepsin K was 24.5 nM; on cathepsin B, over 10000 nM; against cathepsin L it was over 10000 nM; on cathepsin S, over 10000 nM.
For `N#Cc1nccc(C2(NC(=O)Nc3ccc(I)c(F)c3)CCCCC2)n1` [Example 137, 1-(1-(2-cyanopyrimidin-4-yl)cyclohexyl)-3-(3-fluoro-4-iodophenyl)urea], the IC50 is 38.2 nM on cathepsin K, over 10000 nM on cathepsin B, over 10000 nM against cathepsin L and 6220 nM on cathepsin S.
For `CN1CCN(c2ccc(NC(=O)NC3(c4ccnc(C#N)n4)CCCCC3)cc2)CC1` [Example 138, 1-(1-(2-cyanopyrimidin-4-yl)cyclohexyl)-3-(4-(4-methylpiperazin-1-yl)phenyl)urea], the IC50 on cathepsin K was 5.8 nM; at cathepsin B, over 10000 nM; against cathepsin L it was 4200 nM; against cathepsin S, at least 10000 nM.
The like results for `N#Cc1nccc(C2(NC(=O)Nc3ccc(N4CCOCC4)cc3)CCCCC2)n1` [Example 139, 1-(1-(2-cyanopyrimidin-4-yl)cyclohexyl)-3-(4-morpholinophenyl)urea] were, in that order, 12.2 nM, over 10000 nM, 7030 nM and over 10000 nM.
Regarding `N#Cc1nccc(C2(NC(=O)Nc3ccc(N4CCNCC4)cc3)CCCCC2)n1` [Example 140, 1-(1-(2-cyanopyrimidin-4-yl)cyclohexyl)-3-(4-(piperazin-1-yl)phenyl)urea], the IC50 at cathepsin K was 21.5 nM; at cathepsin B, over 10000 nM; at cathepsin L, 6570 nM; at cathepsin S it was over 10000 nM.
On to `CN(C)C1CCN(c2ccc(NC(=O)NC3(c4ccnc(C#N)n4)CCCCC3)cc2)CC1` [Example 141, 1-(1-(2-cyanopyrimidin-4-yl)cyclohexyl)-3-(4-(4-(dimethylamino)piperidin-1-yl)phenyl)urea], for which the IC50 is 4.5 nM on cathepsin K, over 10000 nM against cathepsin B, over 10000 nM at cathepsin L and over 10000 nM against cathepsin S.
Take `CC(C)N1CCN(c2ccc(NC(=O)NC3(c4ccnc(C#N)n4)CCCCC3)cc2)CC1` [Example 142, 1-(1-(2-cyanopyrimidin-4-yl)cyclohexyl)-3-(4-(4-isopropylpiperazin-1-yl)phenyl)urea]: the IC50 was 17.9 nM on cathepsin K, over 10000 nM against cathepsin B, over 10000 nM against cathepsin L and over 10000 nM against cathepsin S.
As to `CC(C)(C)N1CCN(c2ccc(NC(=O)NC3(c4ccnc(C#N)n4)CCCCC3)cc2)CC1` [Example 143, 1-(4-(4-(tert-butyl)piperazin-1-yl)phenyl)-3-(1-(2-cyanopyrimidin-4-yl)cyclohexyl)urea], the IC50 was 2.3 nM at cathepsin K, over 10000 nM at cathepsin B, over 10000 nM against cathepsin L and over 10000 nM at cathepsin S.
For `N#Cc1nccc(C2(NC(=O)Nc3ccc(N4CCN(C5CC5)CC4)cc3)CCCCC2)n1` [Example 144, 1-(1-(2-cyanopyrimidin-4-yl)cyclohexyl)-3-(4-(4-cyclopropylpiperazin-1-yl)phenyl)urea], the IC50 at cathepsin K is 18.3 nM; against cathepsin B it was over 10000 nM; on cathepsin L, over 10000 nM; against cathepsin S it was over 10000 nM.
On to `CCN1CCN(c2ccc(NC(=O)NC3(c4ccnc(C#N)n4)CCCCC3)cc2)CC1` [Example 146, 1-(1-(2-cyanopyrimidin-4-yl)cyclohexyl)-3-(4-(4-ethylpiperazin-1-yl)phenyl)urea], for which the IC50 on cathepsin K is 3.9 nM; against cathepsin B, over 10000 nM; on cathepsin L it was over 10000 nM; against cathepsin S it was over 10000 nM.
For the molecule `COCCNC(=O)c1ccc(-c2ccc(NC(=O)NC3(c4ccnc(C#N)n4)CCCCC3)cc2)cc1` [Example 147, 4′-(3-(1-(2-cyanopyrimidin-4-yl)cyclohexyl)ureido)-N-(2-methoxyethyl)-[1,1′-biphenyl]-4-carboxamide], the IC50 at cathepsin K was 5.2 nM; at cathepsin B it was over 10000 nM; against cathepsin L it was over 10000 nM; at cathepsin S, 7930 nM.
For the molecule `N#Cc1nccc(C2(NC(=O)Nc3ccc(-c4ccc(S(=O)(=O)NC5CC5)cc4)cc3)CCCCC2)n1` [Example 148, 4′-(3-(1-(2-cyanopyrimidin-4-yl)cyclohexyl)ureido)-N-cyclopropyl-[1,1′-biphenyl]-4-sulfonamide], the IC50 at cathepsin K is 16.8 nM; against cathepsin B, over 10000 nM; on cathepsin L, over 10000 nM; against cathepsin S, 8580 nM.
With `N#Cc1nccc(C2(NC(=O)Nc3ccc(-c4ccc(C(=O)NC5CC5)cc4)cc3)CCCCC2)n1` [Example 149, 4′-(3-(1-(2-cyanopyrimidin-4-yl)cyclohexyl)ureido)-N-cyclopropyl-[1,1′-biphenyl]-4-carboxamide], the IC50 was 6.4 nM on cathepsin K, over 10000 nM against cathepsin B, over 10000 nM against cathepsin L and 7300 nM against cathepsin S.
For the molecule `N#Cc1nccc(C2(NC(=O)Nc3ccc(-c4ccc(C(=O)N5CCCC5)c(Cl)c4)cc3)CCCCC2)n1` [Example 150, 1-(3′-chloro-4′-(pyrrolidin-1-carbonyl)-[1,1′-biphenyl]-4-yl)-3-(1-(2-cyanopyrimidin-4-yl)cyclohexyl)urea], the half-maximal inhibitory concentration (IC50) is 6.6 nM at cathepsin K, over 10000 nM at cathepsin B, 8920 nM against cathepsin L and over 10000 nM at cathepsin S.
For the molecule `CC(=O)NCc1ccc(-c2ccc(NC(=O)NC3(c4ccnc(C#N)n4)CCCCC3)cc2)cc1` [Example 151, N-((4′-(3-(1-(2-cyanopyrimidin-4-yl)cyclohexyl)ureido)-[1,1′-biphenyl]-4-yl)methyl)acetamide], the IC50 at cathepsin K was 2 nM; at cathepsin B, over 10000 nM; against cathepsin L, over 10000 nM; at cathepsin S it was over 10000 nM.
In the case of `CN(C)CCOc1ccc(-c2ccc(NC(=O)NC3(c4ccnc(C#N)n4)CCCCC3)cc2)cc1` [Example 153, 1-(1-(2-cyanopyrimidin-4-yl)cyclohexyl)-3-(4′-(2-(dimethylamino)ethoxy)-[1,1′-biphenyl]-4-yl)urea], the IC50 is 0.2 nM at cathepsin K, 4800 nM against cathepsin B, 6720 nM against cathepsin L and over 10000 nM at cathepsin S.
For the molecule `CC(C)N1CCN(c2ccc(-c3ccc(NC(=O)NC4(c5ccnc(C#N)n5)CCCCC4)cc3)cc2)CC1` [Example 154, 1-(1-(2-cyanopyrimidin-4-yl)cyclohexyl)-3-(4′-(4-isopropylpiperazin-1-yl)-[1,1′-biphenyl]-4-yl)urea], the IC50 at cathepsin K was 0.3 nM; against cathepsin B it was 3210 nM; at cathepsin L it was 4280 nM; against cathepsin S, over 10000 nM.

Values taken from patent US11299478B2, “2-cyanopyrimidin-4-yl carbamate or urea derivative or salt thereof, and pharmaceutical composition including same” (HANLIM PHARMACEUTICAL CO., LTD., priority 2018, dated 2022).
